Assay results from PubChem BioAssay AID1033 (Sanford-Burnham Center for Chemical Genomics, 2008).
Activity calls are given as the source filed them. How the calls were made is not given here.

Molecular target: Chaperone protein DnaK (Escherichia coli (strain K12)) (UniProt P0A6Y8)
Experiment: E. coli DnaK SBD ligand binding – biophysical, NMR, chaperone (AID 1033)
Conditions: Purified DnaK SBD

Chaperone protein DnaK (Escherichia coli (strain K12)), sequence (P0A6Y8 whole entry, looked up): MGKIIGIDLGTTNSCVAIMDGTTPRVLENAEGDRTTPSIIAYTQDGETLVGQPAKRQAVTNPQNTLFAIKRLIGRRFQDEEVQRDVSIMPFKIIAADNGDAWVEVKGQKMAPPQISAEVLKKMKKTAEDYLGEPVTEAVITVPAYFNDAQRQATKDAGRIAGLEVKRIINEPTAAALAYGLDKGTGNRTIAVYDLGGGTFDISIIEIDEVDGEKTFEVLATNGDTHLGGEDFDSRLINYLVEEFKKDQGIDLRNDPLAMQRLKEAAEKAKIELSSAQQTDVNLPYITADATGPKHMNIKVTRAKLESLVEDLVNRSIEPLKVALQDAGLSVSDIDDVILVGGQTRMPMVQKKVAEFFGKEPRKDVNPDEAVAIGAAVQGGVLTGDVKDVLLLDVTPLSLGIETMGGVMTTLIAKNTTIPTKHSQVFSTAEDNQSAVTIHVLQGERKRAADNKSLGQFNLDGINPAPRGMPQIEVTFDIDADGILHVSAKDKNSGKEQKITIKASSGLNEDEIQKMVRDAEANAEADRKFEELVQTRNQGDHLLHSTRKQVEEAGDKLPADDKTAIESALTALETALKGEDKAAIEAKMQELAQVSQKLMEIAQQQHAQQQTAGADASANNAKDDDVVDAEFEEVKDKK

SMILES	Kd
OCc1ccc(N2CCOCC2)nc1	> 4 mM (inactive)
Cn1c(=O)c2c(ncn2CCNC2=NCCC2)n(C)c1=O	> 4 mM (inactive)
Cc1ccc2c(c1)CC[C@H]1CC(=O)CC[C@]21C	> 4 mM (inactive)
NC(=O)Cc1nc(-c2ccccc2)cs1	> 4 mM (inactive)
O=c1[nH]c2sc3c(c2c2ncnn12)CCCC3	> 4 mM (inactive)
O=C(O)c1sccc1-n1cccc1	> 4 mM (inactive)
OCc1ccc2c(c1)OCO2	> 4 mM (inactive)
Cc1cc(C(=O)NCc2cccs2)c(C)o1	> 4 mM (inactive)
COc1ccc(C)cc1-n1c(-c2ccncc2)n[nH]c1=S	> 4 mM (inactive)
COc1ccc2c(=O)c(CC(=O)O)coc2c1	> 4 mM (inactive)
COc1cc(C(=S)N2CCOCC2)ccc1O	> 4 mM (inactive)
O=CN1CCN(C(=O)c2ccc(F)cc2)CC1	> 4 mM (inactive)
Cc1nc2ccccc2c(=O)n1N1C(=O)CCCC1=O	> 4 mM (inactive)
O=C(Nc1nnc(-c2ccco2)o1)c1ccc([N+](=O)[O-])o1	> 4 mM (inactive)
C[n+]1cccc(C(=O)[O-])c1	> 4 mM (inactive)
CCSc1n[nH]c(=O)[nH]c1=O	> 4 mM (inactive)
Cc1c(C(=O)N2CCOCC2)oc2c1C(=O)CC(C)(C)C2	> 4 mM (inactive)
O=C(O)c1ccnn1-c1ccccc1	> 4 mM (inactive)
Cc1cc[n+](-c2nc([O-])sc2C=O)cc1	> 4 mM (inactive)
NC(=O)C(=O)Nc1nc(-c2ccccc2)cs1	> 4 mM (inactive)
COc1cc(/C=C2/NC(=S)NC2=O)cc(Cl)c1O	> 4 mM (inactive)
N#CCc1nc2ccccc2s1	> 4 mM (inactive)
O=[n+]1c2c(n([O-])c3ccccc31)CCCC2	> 4 mM (inactive)
O=C(NC1CCS(=O)(=O)C1)C1CCCCC1 (stereo not given)	> 4 mM (inactive)
COc1c(C(=O)N2CCCC2)ccc2ccccc12	> 4 mM (inactive)

SMILES	Kd
NC(=O)Cn1cnc2c(cnn2-c2ccccc2)c1=O	> 4 mM (inactive)
Cn1c(CN2CC(c3ccccc3)CC2=O)n[nH]c1=S (stereo not given)	> 4 mM (inactive)
O=C(Nc1ccc2[nH]ccc2c1)c1cccs1	< 0.2 mM
O=C(O)c1cccc(O)c1O	> 4 mM (inactive)
Cn1c(=O)n(-c2cccc(Cl)c2)c(=O)n1C	> 4 mM (inactive)
NC1=NCc2ccccc21	> 4 mM (inactive)
Cc1cc(=O)n2ccc(CN3CCOCC3)c(O)c2n1	> 4 mM (inactive)
O=C(O)c1ccc2sccc2c1	> 4 mM (inactive)
O=c1c[n+]([O-])c2ccccc2n1OCc1ccccc1	> 4 mM (inactive)
CC(=O)Oc1ccc(O)cc1	> 4 mM (inactive)
Cc1cc(=O)n2[nH]c(C)cc2n1	> 4 mM (inactive)
CC(=O)Nn1c(=O)[nH]c2ccccc2c1=O	> 4 mM (inactive)
COc1ccc(/C=C2\NC(=S)N(C)C2=O)cc1O	> 4 mM (inactive)
O=C(Nc1nncs1)Oc1ccccc1	> 4 mM (inactive)
Cc1nc(-c2ccccc2)ncc1CO	> 4 mM (inactive)
CC(C)NS(=O)(=O)c1ccc(N)cc1	> 4 mM (inactive)
NCc1ccc2c(c1)CCO2	> 4 mM (inactive)
OC/C=C/c1ccc(O)c(O)c1	> 4 mM (inactive)
O=c1cc(-c2cc(O)c(O)c(O)c2)oc2cc(O)cc(O)c12	> 4 mM (inactive)
Cc1cc(C)nc(N2CC(=O)N(C)C2=N)n1	> 4 mM (inactive)
COc1nc(C)ccc1-c1noc(-c2ccco2)n1	> 4 mM (inactive)
Cc1cc(NC(=O)c2ocnc2C)no1	> 4 mM (inactive)
CCc1c(C(=O)Nc2ccncc2)csc1C	> 4 mM (inactive)
O=C1NC(=S)N/C1=C\c1cccc([N+](=O)[O-])c1	> 4 mM (inactive)
Oc1cc(O)c2c(c1)O[C@H](c1cc(O)c(O)c(O)c1)[C@H](O)C2	> 4 mM (inactive)

SMILES	Kd
O=C(O)c1ccc(NC(=O)c2cccs2)cc1	> 4 mM (inactive)
CN(C)C(=O)c1ccccc1-c1ccccc1	> 4 mM (inactive)
O=c1ccnc(Nc2ccccc2O)[nH]1	> 4 mM (inactive)
O=C1c2cccnc2C(=O)N1Cc1ccco1	> 4 mM (inactive)
COc1ccc(NC(=O)N2CCCCC2)cc1	> 4 mM (inactive)
CCNC(=S)Nc1c(C)n(C)n(-c2ccccc2)c1=O	> 4 mM (inactive)
Cc1cc(C)n(-c2nncn2N)n1	> 4 mM (inactive)
C[C@@H]1CC[C@@]23CCC4(C)[C@@](C=CC5[C@@]6(C)CCC(=O)C(C)(C)C6CC[C@]54C)(OC2=O)C3[C@H]1C (stereo not given in full)	> 4 mM (inactive)
Cc1occc1C(=O)Nc1nccs1	> 4 mM (inactive)
O=C(O)c1ccc(N2CCOCC2)nc1	> 4 mM (inactive)
C=C(C)CSc1nc2nc(C)cc(C)n2n1	> 4 mM (inactive)
O=C(c1cc(-c2ccccc2)on1)N1CCCC1	> 4 mM (inactive)
Cc1n[nH]c(C)c1CC(=O)O	> 4 mM (inactive)
CSc1ncnc2nc[nH]c12	> 4 mM (inactive)
Oc1ccc(-n2ccnc2)cc1	> 4 mM (inactive)
OCc1cc(-c2cccs2)on1	> 4 mM (inactive)
NCc1ccc(-c2csnn2)cc1	> 4 mM (inactive)
CN(C)C(=S)Nc1ccccc1N1CCOCC1	> 4 mM (inactive)
O=C(N1CCOCC1)N1CCN(c2ccccn2)CC1	> 4 mM (inactive)
CNC[C@@H](O)c1ccc(O)c(O)c1	> 4 mM (inactive)
CC(C)NC(=O)c1nc2ccccc2s1	> 4 mM (inactive)
O=c1[nH]c(NCCO)nnc1Cc1ccccc1	> 4 mM (inactive)
CC(=O)Oc1c(C)cc(O)c2ccccc12	> 4 mM (inactive)
O=C(NCC1CCNCC1)c1ccncc1	> 4 mM (inactive)
Cc1cc(C)n(-c2nc(C)nc(N)n2)n1	> 4 mM (inactive)

SMILES	Kd
Cc1nc2nc(-c3ccco3)nn2c(C)c1Cl	> 4 mM (inactive)
COc1cc(OC)c2c(c1)O[C@H](c1ccc(OC)c(OC)c1)[C@@H](O)C2	> 4 mM (inactive)
Cc1cc2ncn(S(=O)(=O)N3CCOCC3)c2cc1C	> 4 mM (inactive)
CN1C2CC3C[C@H]1C(O3)C2O (stereo not given in full)	> 4 mM (inactive)
CSc1ccccc1NC(=O)c1ccoc1C	> 4 mM (inactive)
CCCNC(=O)c1cnc2n(c1=O)CCS2	> 4 mM (inactive)
CN(C)S(=O)(=O)Nc1ccc(Br)cc1F	> 4 mM (inactive)
COC(=O)C1CCc2ccccc2N1 (stereo not given)	> 4 mM (inactive)
CNC(=O)c1ccccc1-c1ccccc1	> 4 mM (inactive)
COc1ccc(-c2oc3ccccc3c(=O)c2O)cc1OC	> 4 mM (inactive)
Nc1ccc(Oc2ccccc2)nc1	> 4 mM (inactive)
COc1c(O)cc(O)cc1O	> 4 mM (inactive)
CN1CCN(CC(=O)Nc2ccccc2)CC1	> 4 mM (inactive)
CC(C)=CCc1c2c(c3occ(-c4ccc(O)cc4)c(=O)c3c1O)C=CC(C)(C)O2	> 4 mM (inactive)
CCn1nnc(NC(=O)c2ccccc2Br)n1	> 4 mM (inactive)
NC(=O)CCn1ncc2ccccc21	> 4 mM (inactive)
COc1cccc(/C=C/C(=O)O)c1C(C)C	> 4 mM (inactive)
COc1cc2c(cc1OC)[C@@H]1C(=O)c3ccc4oc(C(C)C)cc4c3O[C@@H]1CO2	> 4 mM (inactive)
CC(C)(C)C(=O)Nc1ncc(C(F)(F)F)cc1Cl	> 4 mM (inactive)
Cc1occc1C(=O)N1CCN(S(C)(=O)=O)CC1	> 4 mM (inactive)
O=c1[nH]cc(NCc2ccccc2)c(=O)[nH]1	> 4 mM (inactive)
CC(=O)O[C@@H]1CC[C@@]2(C)C(CC[C@]3(C)C2CC=C2C4CC(C)(C)CC[C@]4(C(=O)O)CC[C@]23C)C1(C)C (stereo not given in full)	> 4 mM (inactive)
N#C/C(=C\c1ccc[nH]1)S(=O)(=O)c1ccccc1	> 4 mM (inactive)
Nc1ncnc(NCc2cccnc2)c1[N+](=O)[O-]	> 4 mM (inactive)
O=C(Nc1ccc2c(c1)OCO2)c1ccc(=O)[nH]n1	> 4 mM (inactive)

SMILES	Kd
Cc1noc(C)c1C(=O)N1CCc2ccccc2C1	> 4 mM (inactive)
NC(C(=O)O)C(O)C(=O)O (stereo not given)	> 4 mM (inactive)
O=C(Nc1ccon1)c1ccc2c(c1)OCO2	> 4 mM (inactive)
OCc1cccs1	> 4 mM (inactive)
CCOc1ccc2nc(NS(C)(=O)=O)sc2c1	> 4 mM (inactive)
COC(=O)c1ccc2nccnc2c1	> 4 mM (inactive)
O=C(O)CCC(=O)Nc1ccccn1	> 4 mM (inactive)
CC(C)CCn1cnc2c1c(=O)n(C)c(=O)n2C	> 4 mM (inactive)
N#Cc1cnn2c(C(F)(F)F)cc(C(F)(F)F)nc12	> 4 mM (inactive)
O=c1n(-c2ccccc2)c(=O)n2n1CCCC2	> 4 mM (inactive)
NC(=O)C1CCN(C(=S)c2cccs2)CC1	> 4 mM (inactive)
CSc1ccccc1NC(=O)c1cnccn1	> 4 mM (inactive)
O=C(Nc1ccc(N2CCCC2=O)cc1)c1cccc(F)c1	> 4 mM (inactive)
O=C(O)Cc1c[nH]c2ccccc12	> 4 mM (inactive)
Cc1nc(-c2ccc(NS(C)(=O)=O)cc2)cs1	> 4 mM (inactive)
COc1c(O)cccc1O	> 4 mM (inactive)
Nc1nc2c3ccccc3nc(Cc3ccccc3)n2n1	> 4 mM (inactive)
O=C(NC1CSCC1O)c1ccccc1 (stereo not given)	> 4 mM (inactive)
NC(CCC(=O)Nc1ccc([N+](=O)[O-])cc1)C(=O)O (stereo not given)	> 4 mM (inactive)
FC(F)(F)c1cc(-c2ccco2)nc(N2CCOCC2)n1	> 4 mM (inactive)
COC(=O)c1ccc(Cl)c(NC(C)=O)c1	> 4 mM (inactive)
O=C(Nn1cnnc1)c1cccc(C(F)(F)F)c1	> 4 mM (inactive)
O=C1OC(N2CCOCC2)c2ccccc21 (stereo not given)	> 4 mM (inactive)
COc1ccc2c(c1OC)C(=O)N(c1ncn[nH]1)C2	> 4 mM (inactive)
CC(=O)O[C@@H]1C[C@@]2(C)[C@H](c3ccoc3)C[C@H]3O[C@]32[C@]2(C)C(=O)C(O)=C3C(C)(C)C(=O)C=C[C@]3(C)C12 (stereo not given in full)	> 4 mM (inactive)
